Assay results as given in paper PMC6917776, “Discovery of a chemical probe for PRDM9” (Nature Communications, 2019).
Values joined by “and” are separate entries in the source; they are usually repeats but may differ in a detail not shown here. Equal entries are not always repeated.

Tests used:
Muscarinic M2 = target: T1, Muscarinic M2 (Homo sapiens, UniProt P08172); assay: GPCR functional activity, GloSensor assay (agonist and antagonist mode); assay type: cell-based; conditions: for M2 Tango Agonist, raw signal / M2 Tango Antagonist, raw signal: replicates 1-4
T1 construct: NIMH Psychoactive Drug Screening Program, University of North Carolina at Chapel Hill
T1 sequence (P08172 1-466): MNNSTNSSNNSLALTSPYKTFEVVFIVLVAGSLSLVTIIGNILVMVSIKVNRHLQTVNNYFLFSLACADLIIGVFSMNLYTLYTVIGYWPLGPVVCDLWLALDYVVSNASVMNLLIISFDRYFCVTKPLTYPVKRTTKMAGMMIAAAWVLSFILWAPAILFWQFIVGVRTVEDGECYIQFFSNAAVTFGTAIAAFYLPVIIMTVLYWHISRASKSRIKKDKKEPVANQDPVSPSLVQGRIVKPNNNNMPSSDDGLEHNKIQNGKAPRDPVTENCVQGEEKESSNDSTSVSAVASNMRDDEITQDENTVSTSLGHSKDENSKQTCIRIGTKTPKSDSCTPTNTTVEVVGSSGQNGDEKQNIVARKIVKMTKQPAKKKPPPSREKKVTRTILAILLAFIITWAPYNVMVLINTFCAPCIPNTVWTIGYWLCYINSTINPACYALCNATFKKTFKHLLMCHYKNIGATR

MCF7 cells = assay: Cell growth, IncuCyte ZOOM cell number; assay type: cell-based; conditions: for Cell growth (Cell#): MCF7, 5 day treatment, technical replicates
Protocol: HEK293T or MCF7 cells were seeded on 96-well plates and the following day treated with compounds for indicated time. Cell number was determined with Vybrant® DyeCycle™ Green using IncuCyte™ ZOOM live cell imaging device (Essen Bioscence) and analyzed with IncuCyte™ ZOOM (2015A) software.
(top graphs) and MCF7 cells (bottom graph). Cells were treated with compounds for 2 and 4 days or 5 days in case of MCF7. Cell number was measured using IncuCyte™ ZOOM live cell imaging device. The results are MEAN +/- SEM, n=3 (technical replicates). Source data are provided as a Source Data file.
(1 picture or pasted object on this page, not shown here)

COc1cc(OC)cc(-c2noc(N3CCN(C)C4(CCN(c5ccnc(C)c5)CC4)C3)n2)c1 [MRK-740]
Functional activity (in words) (Muscarinic M2; agonist and antagonist mode): no functional activity | M2 Tango Agonist, raw signal (Muscarinic M2; log[MRK-740] -4.52): 1230.87 and 608.6 and 2018.05 and 925.229 | M2 Tango Antagonist, raw signal (Muscarinic M2; log[MRK-740] -4.52): 1892.98 and 2737.32 and 2580.15 and 2057.03 | M2 Tango Agonist, raw signal (Muscarinic M2; log[MRK-740] -5): 1170.4 and 556.928 and 885.65 and 2239.04 | M2 Tango Antagonist, raw signal (Muscarinic M2; log[MRK-740] -5): 2819.92 and 2620.3 and 3056.24 and 3398.11 | M2 Tango Agonist, raw signal (Muscarinic M2; log[MRK-740] -5.52): 908.738 and 686.657 and 1321.02 and 1693.72 | M2 Tango Antagonist, raw signal (Muscarinic M2; log[MRK-740] -5.52): 11268.6 and 11778 and 17270.9 and 14621.3 | M2 Tango Agonist, raw signal (Muscarinic M2; log[MRK-740] -6): 612.997 and 2403.96 and 980.199 and 1368.29 | M2 Tango Antagonist, raw signal (Muscarinic M2; log[MRK-740] -6): 16800.4 and 13053.9 and 12658.1 and 16097 | M2 Tango Agonist, raw signal (Muscarinic M2; log[MRK-740] -6.52): 1008.78 and 553.629 and 1327.61 and 250.195 | M2 Tango Antagonist, raw signal (Muscarinic M2; log[MRK-740] -6.52): 19522.3 and 17447.6 and 21435.3 and 11694.3 | M2 Tango Agonist, raw signal (Muscarinic M2; log[MRK-740] -7): 841.674 and 505.256 and 883.451 and 1474.94 | M2 Tango Antagonist, raw signal (Muscarinic M2; log[MRK-740] -7): 19642.8 and 20162.6 and 13226 and 9835.52 | M2 Tango Agonist, raw signal (Muscarinic M2; log[MRK-740] -7.52): 1908.11 and 681.16 and 1388.08 and 3242.84 | M2 Tango Antagonist, raw signal (Muscarinic M2; log[MRK-740] -7.52): 21785.3 and 16504.3 and 11050.6 and 14699.4 | M2 Tango Agonist, raw signal (Muscarinic M2; log[MRK-740] -8): 903.241 and 865.861 and 1293.53 and 833.978 | M2 Tango Antagonist, raw signal (Muscarinic M2; log[MRK-740] -8): 17075.8 and 13974.2 and 18134.9 and 13350 | M2 Tango Agonist, raw signal (Muscarinic M2; log[MRK-740] -8.52): 3423.68 and 634.694 and 1797.23 and 346.523 | M2 Tango Antagonist, raw signal (Muscarinic M2; log[MRK-740] -8.52): 19019.9 and 15122.7 and 15169.2 and 14917.8 | M2 Tango Agonist, raw signal (Muscarinic M2; log[MRK-740] -9): 2386.23 and 137.073 and 3399.79 and 858.202 | M2 Tango Antagonist, raw signal (Muscarinic M2; log[MRK-740] -9): 17183.9 and 21120.4 and 14888.7 and 14358.1 | M2 Tango Agonist, raw signal (Muscarinic M2; log[MRK-740] -9.52): 623.448 and 315.598 and 869.448 and 1092.96 | M2 Tango Antagonist, raw signal (Muscarinic M2; log[MRK-740] -9.52): 22350.3 and 15858.2 and 16819.1 and 15951.3 | M2 Tango Agonist, raw signal (Muscarinic M2; log[MRK-740] -10): 2109.3 and 935.517 and 704.979 and 1937.8 | M2 Tango Antagonist, raw signal (Muscarinic M2; log[MRK-740] -10): 21021.6 and 16763.8 and 20216.2 and 13987.5 | M2 Tango Agonist, raw signal (Muscarinic M2; log[MRK-740] -10.52): 1187.14 and 1805.66 and 1171.68 and 1424.71 | M2 Tango Antagonist, raw signal (Muscarinic M2; log[MRK-740] -10.52): 18293 and 14853.8 and 17839.5 and 22558.2 | M2 Tango Agonist, raw signal (Muscarinic M2; log[MRK-740] -11): 648.751 and 5178.11 and 914.431 and 991.746 | M2 Tango Antagonist, raw signal (Muscarinic M2; log[MRK-740] -11): 17836.6 and 15099.5 and 17153.4 and 15587.9 | M2 Tango Agonist, raw signal (Muscarinic M2; log[MRK-740] -11.52): 2954.16 and 1388.16 and 1004.4 and 790.728 | M2 Tango Antagonist, raw signal (Muscarinic M2; log[MRK-740] -11.52): 13959.9 and 19316.4 and 14923.6 and 25119.7 | M2 Tango Agonist, raw signal (Muscarinic M2; log[MRK-740] -12): 606.579 and 917.242 and 726.065 and 3353.4 | M2 Tango Antagonist, raw signal (Muscarinic M2; log[MRK-740] -12): 15989 and 24141.3 and 15762.3 and 20389.2 | MCF7 cell viability (in words) (MCF7 cells; 10 µM, 5-day proliferation assay): minimal impact on MCF7 cell viability | Cell growth (Cell#) (MCF7 cells; 0.3 µM): 106.53 % control and 74.2747 % control and 75.9554 % control | Cell growth (Cell#) (MCF7 cells; 1 µM): 111.892 % control and 99.8066 % control and 82.4385 % control | Cell growth (Cell#) (MCF7 cells; 3 µM): 103.969 % control and 69.7125 % control and 102.608 % control | Cell growth (Cell#) (MCF7 cells; 10 µM): 66.6711 % control and 77.6362 % control and 64.0299 % control | Cell growth (Cell#) (MCF7 cells; 20 µM): 36.7371 % control and 35.4566 % control and 42.0196 % control
